Earlier results as cited in patent US11576379B2, “Antimicrobial composition comprising alkylated polyvinylpyrrolidone polymer” (The Procter & Gamble Company, priority 2019, dated 2023).

For `CC(=O)O.CC(=O)O.NC(=N\CCCCCC/N=C(N)/N=C(\N)Nc1ccc(Cl)cc1)/N=C(\N)Nc1ccc(Cl)cc1` [Chlorhexidine diaceate, Chlorhexidine diacetate], the Solubility in water is listed as ~1%.
